Test results taken from the supplement of paper PMC10307832.

What was measured:
Assay in all cases: relative viability (nuclei count vs DMSO), 5 days (fraction); higher = more cells survive
[1] = compound: CCN(CCO)CCCC(C)Nc1ccnc2cc(Cl)ccc12 [Hydroxychloroquine] + O=C(CCCCCCC(=O)Nc1ccccc1)NO [Vorinostat] (partner 1 µM)
Method in brief: (§1)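 For relative viability, nuclei counts in treated wells were divided by those in vehicle wells. Lung cancer cell lines had been pin-tool dosed in 1536-well plates the day after seeding and cultured for 5 days, then fixed and stained in one step (final 0.05% Triton X-100, 1% formaldehyde, 1 ug/ml Hoechst) and imaged at 4×. Doses were one drug alone or a fixed anchor-drug dose plus five library-drug doses (not always all listed) in √10 steps, and values are duplicate-plate medians.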

[2] = compound: CCN(CCO)CCCC(C)Nc1ccnc2cc(Cl)ccc12 [Hydroxychloroquine] + Cc1nc(Nc2ncc(C(=O)Nc3c(C)cccc3Cl)s2)cc(N2CCN(CCO)CC2)n1 [Dasatinib] (partner 0.075 µM)
Method in brief: as §1

[3] = compound: CCN(CCO)CCCC(C)Nc1ccnc2cc(Cl)ccc12 [Hydroxychloroquine] + CS(=O)(=O)N1CCN(Cc2cc3nc(-c4cccc5[nH]ncc45)nc(N4CCOCC4)c3s2)CC1 [Pictilisib] (partner 1 µM)
Method in brief: as §1

[4] = compound: CCN(CCO)CCCC(C)Nc1ccnc2cc(Cl)ccc12 [Hydroxychloroquine] + C[C@@H](Oc1cc(-c2cnn(C3CCNCC3)c2)cnc1N)c1c(Cl)ccc(F)c1Cl [Crizotinib] (partner 1 µM)
Method in brief: as §1

| Cell Line | relative viability ([1]; first compound 0.5 µM) | relative viability ([1]; first compound 1.581 µM) | relative viability ([1]; first compound 5 µM) | relative viability ([1]; first compound 15.81 µM) | relative viability ([1]; first compound 50 µM) | relative viability ([2]; first compound 0.5 µM) | relative viability ([2]; first compound 1.581 µM) | relative viability ([2]; first compound 5 µM) | relative viability ([2]; first compound 15.81 µM) | relative viability ([2]; first compound 50 µM) | relative viability ([3]; first compound 0.5 µM) | relative viability ([3]; first compound 1.581 µM) | relative viability ([3]; first compound 15.81 µM) | relative viability ([3]; first compound 50 µM) | relative viability ([4]; first compound 0.5 µM) | relative viability ([4]; first compound 1.581 µM) | relative viability ([4]; first compound 15.81 µM) | relative viability ([4]; first compound 50 µM) | relative viability ([3]; first compound 5 µM) | relative viability ([4]; first compound 5 µM) |
| --- | --- | --- | --- | --- | --- | --- | --- | --- | --- | --- | --- | --- | --- | --- | --- | --- | --- | --- | --- | --- |
| NCI-H650 | 0.478 | 0.432 | 0.397 | 0.42 | 0.478 | 0.501 | 0.405 | 0.446 | 0.458 | 0.479 | 0.867 | 0.758 | 1.01 | 0.827 | 0.787 | 0.63 | 0.675 | 0.835 |  |  |
| NCI-H661 | 0.827 | 0.828 | 0.782 | 0.802 | 0.782 | 0.841 | 0.872 | 0.764 | 0.722 | 0.894 | 0.472 | 0.413 | 0.384 | 0.358 | 0.939 | 0.962 | 0.927 | 1.09 | 0.406 | 1.05 |
| NCI-H727 | 1.07 | 1.22 | 1.23 | 0.969 | 1.33 | 0.337 | 0.379 | 0.471 | 0.43 | 0.457 | 0.389 | 0.339 | 0.325 | 0.371 | 0.839 | 0.815 | 0.908 | 0.885 | 0.444 | 0.804 |
| NCI-H838 | 0.721 | 0.667 | 0.803 | 0.716 | 0.721 | 0.256 | 0.258 | 0.296 | 0.242 | 0.237 | 0.509 | 0.465 | 0.465 | 0.53 | 0.805 | 0.8 | 0.829 | 0.974 | 0.398 | 0.823 |
| NCI-H1355 | 0.657 | 0.582 | 0.631 | 0.63 | 0.657 | 0.74 | 0.59 | 0.693 | 0.705 | 0.875 | 0.475 | 0.362 | 0.485 | 0.471 | 1.08 | 1.01 | 1.08 | 1.1 | 0.461 | 1.11 |
| NCI-H1437 | 0.853 | 0.862 | 0.85 | 0.844 | 0.891 | 0.371 | 0.493 | 0.375 | 0.429 | 0.509 | 0.341 | 0.49 | 0.421 | 0.439 | 0.824 | 0.985 | 0.97 | 1.03 | 0.412 | 0.963 |
| NCI-H1650 | 0.48 | 0.593 | 0.634 | 0.663 | 0.608 | 0.425 | 0.357 | 0.241 | 0.296 | 0.303 | 0.558 | 0.578 | 0.542 | 0.599 | 0.92 | 0.903 | 1.01 | 1.04 | 0.49 | 0.999 |
| NCI-H1651 | 0.582 | 0.589 | 0.583 | 0.579 | 0.493 | 0.421 | 0.554 | 0.427 | 0.436 | 0.396 | 0.6 | 0.663 | 0.574 | 0.592 | 0.926 | 0.884 | 0.853 | 0.911 | 0.561 | 0.83 |
| NCI-H1666 | 0.991 | 0.943 | 1.01 | 0.92 | 0.936 | 0.845 | 0.771 | 0.815 | 0.793 | 0.765 | 0.519 | 0.409 | 0.477 | 0.402 | 0.872 | 1.11 | 0.837 | 1.14 | 0.377 | 0.948 |
